Values quoted from earlier work, collected in paper PMC6606825 (Journal of Ginseng Research, 2018).

Tests used:
[1] = PK data in animals and healthy individuals; cited from earlier work
[2] = tested on: cytochrome P450 enzymes (CYPs); details: in vitro; ref unpublished; cited from earlier work

In the case of CC(C)=CCC[C@](C)(O[C@@H]1O[C@H](CO)[C@@H](O)[C@H](O)[C@H]1O)[C@H]1CC[C@]2(C)[C@@H]1[C@H](O)C[C@@H]1[C@@]3(C)CC[C@H](O)C(C)(C)[C@@H]3CC[C@]12C [Ginsenoside compound K, 20-O-beta-D-glucopyranosyl-20(S)-protopanaxadiol], the oral bioavailability [1] is listed as “poor oral bioavailability” and the “effects of CYPs on CK” value [2] is listed as “minimal effects”.
